Tests used:
PDH-Elalpha (pSer300) = experiment: Cellular immunofluorescence assay in HEK293T cells; assay type: cell-based; conditions: Homo sapiens, HEK-293T, 5 hours incubation, anti-PDH-E1alpha pSer300 immunofluorescence, read-out: IC50 (cell data)
Summary of the method: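 HEK293T cells were exposed to compound for 5 hours, then fixed, permeabilised and immunostained for PDH-Elalpha pSer300 with Hoechst counterstain, read by laser scanning cytometry. Percent effect was normalized to a pharmacological inhibitor control and fitted to dose-response curves.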

human PDHK2 (12-407) = target: T1, human PDHK2 (12-407) (Homo sapiens, UniProt Q15119); experiment: Isothermal titration calorimetry (ITC) binding; conditions: 30° C., pH 7.5
T1 construct: The human PDHK2 (12-407) was produced in E. coli; His-tag (cleaved yes); made in house; host or cells: E. coli
Summary of the method: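 Untagged PDHK2 (12-407) from E. coli at 50 μM titrated into 5 μM compound at 30° C in pH 7.5 HEPES/KCl/MgCl2/phosphate buffer, ≤1% DMSO. One-site fit gave KA, ΔH^obs and N after heat-of-dilution correction; protein concentration referenced to a standard inhibitor and compound concentration adjusted to 1:1 stoichiometry.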

PDHK2 = target: T2, PDHK2 (Homo sapiens, UniProt Q15119); experiment: Biochemical activity testing of PDHK2: PDC inactivation assay; conditions: human rec PDHK2, PDC from porcine heart, ATP 5 μM; read-out: IC50 PDHK2 (enzyme assay)
T2 construct: purchased Carna Bioscience
Summary of the method: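 Human recombinant PDHK2 (137 nM final) preincubated 30 min at RT with porcine heart PDC (20 mU/ml) and compound in pH 7.0 phosphate buffer, then phosphorylated with 5 μM ATP for 30 min at 37 °C. Residual PDC activity read as NADH fluorescence increase (Ex 340/Em 450) over 45 min; inhibitor-free reaction as full value, 3 mM DCA as zero, IC50 derived.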

IC50 (PDH-Elalpha (pSer300)) [µM] | Kd (human PDHK2 (12-407)) [µM] | IC50 (PDHK2) [µM] | SMILES
0.3 to 3 | < 0.3 | 0.3 to 3 | Cc1cccc(-n2nccc2C2CCN(C(=O)[C@@](C)(O)C(F)(F)F)CC2)c1 [Compound A6, (R)-3,3,3-Trifluoro-2-hydroxy-2-methyl-1-[4-(2-m-tolyl-2H-pyrazol-3-yl)-piperidin-1-yl]-propan-1-one]
0.3 to 3 | < 0.3 | 0.3 to 3 | C[C@@](O)(C(=O)N1CCC(c2ccnn2-c2ccc(Cl)c(F)c2)CC1)C(F)(F)F [Compound A100, (R)-1-{4-[2-(4-Chloro-3-fluoro-phenyl)-2H-pyrazol-3-yl]-piperidin-1-yl}-3,3,3-trifluoro-2-hydroxy-2-methyl-propan-1-one]
0.3 to 3 | < 0.3 | < 0.3 | C[C@@](O)(C(=O)N1CCC(c2ccnn2-c2cccc(F)c2)CC1)C(F)(F)F [Compound A10, (R)-3,3,3-Trifluoro-1-{4-[2-(3-fluoro-phenyl)-2H-pyrazol-3-yl]-piperidin-1-yl}-2-hydroxy-2-methyl-propan-1-one]
0.3 to 3 | < 0.3 | < 0.3 | Cc1ccc(-n2nccc2C2CCN(C(=O)[C@@](C)(O)C(F)(F)F)CC2)c(F)c1 [Compound A16, (R)-3,3,3-Trifluoro-1-{4-[2-(2-fluoro-4-methyl-phenyl)-2H-pyrazol-3-yl]-piperidin-1-yl}-2-hydroxy-2-methyl-propan-1-one]
0.3 to 3 | < 0.3 | < 0.3 | COc1ccc(-n2nccc2C2CCN(C(=O)[C@@](C)(O)C(F)(F)F)CC2)cc1 [Compound A2, (R)-3,3,3-Trifluoro-2-hydroxy-1-{4-[2-(4-methoxy-phenyl)-2H-pyrazol-3-yl]-piperidin-1-yl}-2-methyl-propan-1-one]
3 to 50 | < 0.3 | 0.3 to 3 | C[C@@](O)(C(=O)N1CCC(c2ccnn2-c2ccc(F)cn2)CC1)C(F)(F)F [Compound A112, (2R)-1-[4-[2-(5-Fluoro-2-pyridyl)-2H-pyrazol-3-yl]-1-piperidyl]-3,3,3-trifluoro-2-hydroxy-2-methyl-propan-1-one]
< 0.3 | < 0.3 | < 0.3 | C[C@@H]1CN(C(=O)[C@@](C)(O)C(F)(F)F)CC[C@@H]1c1ccnn1-c1ccc(C#N)cc1 [Compound A111, 4-{5-[(3S,4S)-3-Methyl-1-((R)-3,3,3-trifluoro-2-hydroxy-2-methyl-propionyl)piperidin-4-yl]-pyrazol-1-yl}-benzonitrile]
0.3 to 3 | < 0.3 | < 0.3 | C[C@@](O)(C(=O)N1CCC(c2ccnn2-c2ccc(F)cc2)CC1)C(F)(F)F [Compound A14, (R)-3,3,3-Trifluoro-1-{4-[2-(4-fluoro-phenyl)-2H-pyrazol-3-yl]-piperidin-1-yl}-2-hydroxy-2-methyl-propan-1-one]
0.3 to 3 | < 0.3 | 0.3 to 3 | COc1ccc(-n2cncc2C2CCN(C(=O)[C@@](C)(O)C(F)(F)F)CC2)cc1 [Compound A131, (R)-3,3,3-Trifluoro-2-hydroxy-1-{4-[3-(4-methoxy-phenyl)-3 H-imidazol-4-yl]-piperidin-1-yl}-2-methyl-propan-1-one]
0.3 to 3 | < 0.3 | < 0.3 | C[C@@](O)(C(=O)N1CCC(c2ccnn2-c2ncc(F)cc2F)CC1)C(F)(F)F [Compound A82, (R)-1-[4-[2-(3,5-Difluoro-2-pyridyl)-2H-pyrazol-3-yl]-1-piperidyl]-3,3,3-trifluoro-2-hydroxy-2-methyl-propan-1-one]
0.3 to 3 | < 0.3 | < 0.3 | C[C@@H]1CN(C(=O)[C@@](C)(O)C(F)(F)F)CC[C@@H]1c1ccnn1-c1ccc(F)cn1 [Compound A118, (R)-3,3,3-Trifluoro-1-{(3S,4S)-4-[2-(5-fluoro-pyridin-2-yl)-2H-pyrazol-3-yl]-3-methyl-piperidin-1-yl}-2-hydroxy-2-methyl-propan-1-one]
0.3 to 3 | < 0.3 | 0.3 to 3 | CC(C)(C)c1ccc(-n2nccc2C2CCN(C(=O)[C@@](C)(O)C(F)(F)F)CC2)cc1 [Compound A21, (R)-1-{4-[2-(4-tert-Butyl-phenyl)-2H-pyrazol-3-yl]-piperidin-1-yl}-3,3,3-trifluoro-2-hydroxy-2-methyl-propan-1-one]
3 to 50 | < 0.3 | 0.3 to 3 | C[C@@](O)(C(=O)N1CCC(n2cncc2-c2ccccc2)CC1)C(F)(F)F [Compound A63, (2R)-3,3,3-trifluoro-2-hydroxy-2-methyl-1-[4-(5-phenylimidazol-1-yl)-1-piperidyl]propan-1-one]
0.3 to 3 | < 0.3 | 0.3 to 3 | C[C@@](O)(C(=O)N1CCC(c2ccnn2-c2ccc(OC(F)F)cc2)CC1)C(F)(F)F [Compound A96, (R)-1-[4-[2-[4-(Difluoromethoxy)phenyl]-2H-pyrazol-3-yl]-1-piperidyl]-3,3,3-trifluoro-2-hydroxy-2-methyl-propan-1-one]
3 to 50 | < 0.3 | 0.3 to 3 | C[C@@](O)(C(=O)N1CCC(c2ccnn2-c2cccc(Cl)c2)CC1)C(F)(F)F [Compound A12, (R)-1-{4-[2-(3-Chloro-phenyl)-2H-pyrazol-3-yl]-piperidin-1-yl}-3,3,3-trifluoro-2-hydroxy-2-methyl-propan-1-one]
3 to 50 | < 0.3 | 0.3 to 3 | Cc1cc(-n2nccc2C2CCN(C(=O)[C@@](C)(O)C(F)(F)F)CC2)no1 [Compound A115, (R)-3,3,3-Trifluoro-2-hydroxy-2-methyl-1-{4-[2-(5-methyl-isoxazol-3-yl)-2H-pyrazol-3-yl]-piperidin-1-yl}-propan-1-one]
0.3 to 3 | < 0.3 | 0.3 to 3 | C[C@@](O)(C(=O)N1CCC(c2cncn2-c2ccccc2)CC1)C(F)(F)F [Compound A65, (R)-3,3,3-Trifluoro-2-hydroxy-2-methyl-1-[4-(3-phenyl-3H-imidazol-4-yl)piperidin-1-yl]-propan-1-one]
0.3 to 3 | < 0.3 | < 0.3 | C[C@@](O)(C(=O)N1CCC(c2ccnn2-c2ccc(OC(F)(F)F)cc2)CC1)C(F)(F)F [Compound A95, (R)-3,3,3-Trifluoro-2-hydroxy-2-methyl-1-[4-[2-[4-(trifluoromethoxy)-phenyl]-2H-pyrazol-3-yl]-1-piperidyl]propan-1-one]
0.3 to 3 | < 0.3 | < 0.3 | C[C@@](O)(C(=O)N1CCC(c2cc(C(F)(F)F)nn2-c2ccc(Cl)cc2)CC1)C(F)(F)F [Compound A35, (R)-1-{4-[2-(4-Chloro-phenyl)-5-trifluoromethyl-2H-pyrazol-3-yl]-piperidin-1-yl}-3,3,3-trifluoro-2-hydroxy-2-methyl-propan-1-one]
0.3 to 3 | < 0.3 | 0.3 to 3 | C[C@@](O)(C(=O)N1CCC(c2ccnn2-c2ccc(Cl)c(Cl)c2)CC1)C(F)(F)F [Compound A101, (R)-1-{4-[2-(3,4-Dichloro-phenyl)-2H-pyrazol-3-yl]-piperidin-1-yl}-3,3,3-trifluoro-2-hydroxy-2-methyl-propan-1-one]
3 to 50 | < 0.3 | 0.3 to 3 | CC(C)n1nccc1C1CCN(C(=O)[C@@](C)(O)C(F)(F)F)CC1 [Compound A36, (R)-1-[4-(2-Isopropyl-2H-pyrazol-3-yl)-piperidin-1-yl]-3,3,3-trifluoro-2-hydroxy-2-methyl-propan-1-one]
0.3 to 3 | < 0.3 | 0.3 to 3 | C[C@@](O)(C(=O)N1CCC(c2ccnn2-c2ccc(C(F)(F)F)cc2F)CC1)C(F)(F)F [Compound A88, (R)-3,3,3-Trifluoro-1-[4-[2-[2-fluoro-4-(trifluoromethyl)phenyl]-2H-pyrazol-3-yl]-1-piperidyl]-2-hydroxy-2-methyl-propan-1-one]
0.3 to 3 | < 0.3 | < 0.3 | Cc1cc(C2CCN(C(=O)[C@@](C)(O)C(F)(F)F)CC2)n(-c2ccc(F)cc2F)n1 [Compound A97, (R)-1-{4-[2-(2,4-Difluoro-phenyl)-5-methyl-2H-pyrazol-3-yl]-piperidin-1-yl}-3,3,3-trifluoro-2-hydroxy-2-methyl-propan-1-one]
0.3 to 3 | < 0.3 | 0.3 to 3 | C[C@@](O)(C(=O)N1CCC(c2cncn2-c2ccc(F)cc2)CC1)C(F)(F)F [Compound A124, (R)-3,3,3-Trifluoro-1-{4-[3-(4-fluoro-phenyl)-3H-imidazol-4-yl]-piperidin-1-yl}-2-hydroxy-2-methyl-propan-1-one]
< 0.3 | < 0.3 | < 0.3 | C[C@@H]1CN(C(=O)[C@@](C)(O)C(F)(F)F)CC[C@@H]1c1ccnn1-c1ccc(Cl)cc1 [Compound A119, (R)-1-{(3S,4S)-4-[2-(4-Chloro-phenyl)-2H-pyrazol-3-yl]-3-methyl-piperidin-1-yl}-3,3,3-trifluoro-2-hydroxy-2-methyl-propan-1-one]

Reference: patent US9751861B2, “N1-(3,3,3-trifluoro-2-hydroxo-2-methylpropionyl)-piperidine derivatives as inhibitors of pyruvate dehydrogenase kinase” (MERCK PATENT GMBH, priority 2013, dated 2017)
